Data from US20230295259A1 (Protagonist Therapeutics, Inc., priority 2020, published 2023).

Columns and labels:
[1] = Stability in simulated intestinal fluid (FaSSIF with 1% pancreatin); format: in vitro ADME; conditions: pig, pH 6.5, Table 2A, 20 μM in FaSSIF with 1% pancreatin, 37° C., percent in brackets not explained, read-out: SIF Half life
Method: FaSSIF was prepared by dissolving 1.2 g porcine pancreatin (Chem-supply, PL378) in 100 mL Blank FaSSIF and stirred at room temperature for 30 minutes. The solution was filtered through 0.45 μm membrane and aliquot and stored at −20° C.
Experimental compounds of interest (20 μM) were incubated with pre-warmed FaSSIF (1% pancreatin in final incubation mixture) at 37° C. Aliquots were taken at various time points up to 24 hours (e.g. 0, 0.25, 1, 3, 6 and 24 hr), and immediately quenched with 4 volumes of organic solvent (acetonitrile/methanol (1:1) and 0.1% formic acid, containing 1 μM internal standard). Quenched samples were stored at 4° C. until the end of the experiment and centrifuged at 4,000 rpm for 10 minutes. The supernatant was diluted 1:1 with deionized water and analyzed using LC-MS. Percentage remaining at each time point was calculated based on the peak area ratio (analyte over internal standard) relative to the initial level at time zero. Half-lives were calculated by fitting to a first-order exponential decay equation using GraphPad.
Compounds of interest (at concentration of 20 μM) were mixed with pre-warmed FaSSIF (1% pancreatin in final working solution). The solution mixture was aliquoted and incubated at 37° C. The number of aliquots required was equivalent to the number of time points (e.g. 0, 0.25, 1, 3, 6 and 24 hr). […]

[2] = system: LAD2 cells; format: cell-based, human
In short: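 Compound serial dilutions were added to LAD2 human mast cells for 30 min. β-Hexosaminidase in supernatants and cell lysates was quantified with the fluorogenic substrate 4-methylumbelliferyl-N-acetyl-b-D-glucosaminide. Dose-response curves plotted % β-hexosaminidase release against peptide concentration.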

half-life at 20 μM [1]: 1.5 h
EC50 [2]: 12.9 µM
Structure (SMILES): CC[C@H](C)[C@@H]1NC(=O)[C@@H](NC(=O)[C@@H]2CCCN2C(=O)[C@@H](NC(=O)[C@H](Cc2cnc[nH]2)NC(=O)[C@@H](NC(=O)[C@H](CCC(=O)O)NC(=O)CC(C)C)C(C)O)C(c2ccccc2)c2ccccc2)CSSC[C@@H](C(N)=O)NC(=O)[C@@H](CCCCN)NC(=O)C[C@H](Cc2ccccc2)NC(=O)[C@H](CCCCNC(=O)COCCOCCNC(=O)COCCOCCNC(=O)CCCCCNC(=O)CCCCCCCCCCCCCCCCC(=O)O)NC1=O (some centres unmarked) [Compound 12, Isovaleric Acid-E-T-H-[Dpa]-P-[Cys]-I-[Lys(1Peg2_1Peg2_Ahx_C18_Diacid)]-[bhPhe]-[(D)Lys]-[Cys]-NH2]
